Results on twelve compounds are retold here after patent publication US20240239790A1, “7-Morpholino-1,6-Naphthyridin-5-yl Derivatives and Pharmaceutical Compositions Thereof Useful as DNA-PK Inhibitor” (adMare Therapeutics Society, priority 2021, published 2024).

For test [1], the target named is T1, DNA-PK phosphorylation at Serine 2056 (Homo sapiens, UniProt P78527).
T1 construct: FaDu cells were purchased from ATCC; host or cells: FaDu
Description: Cellular Assay for Inhibition of DNA-PK Phosphorylation at Serine 2056 in FaDu cells (sandwich ELISA, neocarzinostatin). It is filed as cell-based. Conditions: pSer2056 DNA-PK, neocarzinostatin 1 μg/mL, Table 1. Summed up: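 FaDu cells pre-treated with compound (0.3% DMSO) for 1 h, then neocarzinostatin 1 μg/mL final added for 2 h to induce DSBs. Protein-normalised lysates read by sandwich ELISA for total and pSer2056 DNA-PK; % inhibition normalised between DMSO and NCS controls, IC50 from variable-slope log(inhibitor) fit.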

The target in test [2] is T2, DNA-PK (Homo sapiens, UniProt P78527).
T2 construct: purchased Invitrogen PR9107A
Description: DNA-PK Assay for Biochemical Enzymatic Inhibition (ADP Glo Kinase assay). Conditions: DNA-PK enzyme, Table 1. As for the experimental part: A biochemical assay was performed to identify IC50 values against DNA-PK activity in a two-step reaction with a kinase reaction followed by ADP Glo™ Kinase assay Kit (Promega V9102).
Three-fold serial dilutions of compounds in DMSO were prepared in kinase assay buffer (50 mM HEPES pH 7.5, 20 mM MgCl2, 100 mM KCl, 50 μM DTT, 10 μg/ml calf thymus DNA, 0.01% Tween 20). Kinase assay buffer was used to prepare compound treatments to 0.02% DMSO (dimethyl sulphoxide) content. DMSO controls were prepared to produce a maximum and minimum luminescence signal for normalization. Substrate (Anaspec, AS-60210-5) and ATP (Promega V9102) and ATP mix was prepared by dilution in kinase assay buffer for 434.4 μM and 64.4 μM final assay concentrations, respectively. Compounds and control were added to 25 ng DNA-PK enzyme (Invitrogen, PR9107A) diluted in kinase buffer in assay plate (Corning 267459) and incubated for 15 minutes at room temperature prior to addition of substrate and ATP mix.
Throughout the assay, each time a reagent was added to the microplate, it was centrifuged for 1 minute at 1300 rcf. All reagents were added, and incubations carried out at room temperature. The reaction was then incubated for 60 minutes. ADP-ATP standards at 0, 4, 10, 40, 80, and 100% ADP (prepared as specified in the ADP Glo™ Kinase assay kit) were also added to the microplate at a volume equal to the total kinase reaction. The ADP Glo™ Kinase Assay kit was then used to quantify DNA-PK activity: following the 60-minute incubation, a 1:1 volume of ADP Glo reagent was added to all wells, then following a further 45-minute incubation, a 1:1 volume of Kinase Detection Reagent was added to all wells. After this two-step assay, plates were incubated in a Synergy-Neo2 plate reader for 30 minutes with gentle shaking, followed by endpoint luminescent read Luminescence data was normalized by subtracting the background signal and expressing all background-adjusted values as a percentage of the average maximum signal. The data was then expressed as percent inhibition by subtracting from 100% (i.e. maximum luminescent signal will be 0% inhibition) and the resulting data plotted against ten concentration points on a logarithmic scale, using GraphPad Prism. Non-linear regression analysis was performed on each concentration response curve and the log [inhibitor] vs response—variable slope (four parameters) equation was selected to generate IC50 values.

Test [3] deals with pDNA-PK induction in HCT116 tumour spheroids. Description: Multicellular tumour spheroid + radiation, pDNA-PK (ser2056) inhibition, immunohistochemical endpoint, HCT116. It is filed as cell-based. Conditions: Homo sapiens, 20 Gy, 20% O2. On the procedure:
Multicellular tumour spheroids determination of compound inhibition of pDNA-PK induction following radiation. Tumour spheroids were grown to approximately 0.5 mm in diameter and irradiated with 20 Gy in combination with inhibitor test compounds to determine their potency. Inhibitor concentration for 50% reduction in pDNA-PK induction (IC50) was determined via immunohistochemical staining in spheroid cryosections taken 2 hours following radiation.
Spheroid+radiation pDNA-PK. Radiation: 20 Gy. Drug: serial dilution 5 or 10 μM down to 3.5 nM (11 wells). Spheroids: 3-6 spheroids per well (300-500 μm diameter). 20% 02 and 5% CO2. 96 well plate format.
Protocol: pre-incubate 1 hours with drug, irradiate with 20 Gy, post-incubate 2 hours with drug, freeze and cryosection ×3 replicates.
Endpoint: fluorescent immunostin pDNA-PK ser2056 and image on microscope.
Analysis: determine EC50 concentration that decreases pDNA-PK induction by 50% after radiation.
Multicellular tumour spheroids determination of compound inhibition of pDNA-PK induction following radiation. Tumour spheroids were grown to approximately 0.5 mm in diameter and irradiated with 20 Gy in combination with inhibitor test compounds to determine their potency. Inhibitor concentration for 50% reduction in pDNA-PK induction (IC50) was determined via immunohistochemical staining in spheroid cryosections taken 2 hours following radiation. For cell survival endpoint 8 Gy radiation was used and 3 hours following radiation spheroids were dissociated, counted and plated for colony forming endpoint.
Spheroid+radiation pDNA-PK. Radiation: 20 Gy. Drug: serial dilution 5 or 10 μM down to 3.5 nM (11 wells). Spheroids: 3-6 spheroids per well (300-500 μm diameter). 20% 02 and 5% CO2. 96 well plate format. Endpoint: fluorescent immunostain pDNA-PK ser2056 and image on microscope. Analysis: determine EC50 concentrations that decreases pDNA-PK induction by 50% after irradiation.
Multicellular tumour spheroids were used to determine potency of test compounds in a 3D tissue environment using inhibition of pDNA-PK induction following radiation or cell survival as the endpoint. For the pDNA-PK endpoint HCT116 or FaDU tumour spheroids were grown to approximately 0.5 mm in diameter and irradiated with 20 Gy in combination with inhibitor test compounds to determine their potency. Experiments were carried out in 96 well plates containing 0.7 mls of MEM media containing 10% FBS and 10 mM glucose under 20% O2 & 5% CO2 at 37° C. Following dilution of compounds 1:1000 from DMSO stocks, compounds were serially diluted from 10 μM down to 3.5 nM and 5-10 spheroids added. 96 well plates were constantly stirred to avoid spheroids settling during the course of the experiment. The inhibitor concentration for 50% reduction in pDNA-PK induction (EC50) was determined via immunohistochemical staining in spheroid cryosections taken 2 hours following radiation using anti-pDNA-PK (ser 2056) and fixed immediately in formalin following sectioning. For cell survival endpoint 8 Gy radiation was used and, 3 hours following radiation, spheroids were dissociated, counted and plated for colony forming endpoint. Data presented in the table compound potency as EC50 [μM].

The mark [4] stands for this setting: HCT-116, 2 h, spheroids, Example 8, read-out: Cell line: HCT116 Immunohistochemical endpoint pDNA-PK inhibition EC50.
The mark [5] stands for this setting: HCT-116, 2 hours following radiation, Example 9 Study 2, read-out: Spheroid Cell line: HCT116 Immunohistochemical endpoint pDNA-PK inhibition EC50.
Where [6] appears, read: HCT-116, Spheroid, Cell Line: HCT115 (so in the source), 2 hours following radiation, Example 7, read-out: EC50, Immunohistochemical endpoint, pDNA-PK inhibition.

Read-outs that look alike come from different tables or passages of the source. Bounds are passed on as bounds.

One may read the IC50 as the concentration at which inhibition is half-maximal. In general, EC50 refers to the midpoint of the concentration-response curve. For `O=C(Nc1ccc(F)cc1)N[C@H]1CC[C@@H](Oc2nc(N3CCOCC3)cc3ncccc23)CC1` [Compound 151, 1-(4-Fluorophenyl)-3-((1s,4s)-4-((7-morpholino-1,6-naphthyridin-5-yl)oxy)cyclohexyl)urea], the IC50 in test [1] was in the range of 0.1 to 1 µM; in test [2], 0.001 to 0.01 µM. Besides, the EC50 in test [3] (setting [4]), in test [3] (setting [5]) and in test [3] (setting [6]) was 1 to 10 µM each time.
In the case of `CN(C)C(=O)N[C@H]1CC[C@@H](Oc2nc(N3CCOCC3)cc3ncccc23)CC1` [Compound 153, 1,1-Dimethyl-3-((1s,4s)-4-((7-morpholino-1,6-naphthyridin-5-yl)oxy)cyclohexyl)urea], the values for the 50% inhibitory concentration (IC50) in test [1] and in test [2] were 0.1 to 1 µM and 0.001 to 0.01 µM, respectively. For the same compound, the EC50 in test [3] (setting [4]), in test [3] (setting [5]) and in test [3] (setting [6]) was 10 to 100 µM throughout.
`O=C(Nc1ccccn1)[C@H]1CC[C@@H](Oc2nc(N3CCOCC3)cc3ncccc23)CC1` [Compound 154c, (1S,4S)-4-((7-morpholino-1,6-naphthyridin-5-yl)oxy)-N-(pyridin-2-yl)cyclohexane-1-carboxamide]: the IC50 in test [1] was 0.1 to 1 µM; in test [2], 0.001 to 0.01 µM. The EC50 in test [3] (setting [4]), in test [3] (setting [5]) and in test [3] (setting [6]) was 1 to 10 µM throughout.
Turning to `COC(=O)c1cnc2cc(N3CCOCC3)nc(O[C@H]3CC[C@@H](n4ccnc4)CC3)c2c1` [Compound 164, methyl 5-(((1s,4s)-4-(1H-imidazol-1-yl)cyclohexyl)oxy)-7-morpholino-1,6-naphthyridine-3-carboxylate], the IC50 in test [1] was 1 to 10 µM; in test [2], 0.001 to 0.01 µM. Also, the EC50 in test [3] (setting [4]), in test [3] (setting [5]) and in test [3] (setting [6]) was 1 to 10 µM in each case.
`CCCS(=O)(=O)NC(=O)c1cnc2cc(N3CCOCC3)nc(O[C@H]3CC[C@@H](n4ccnc4)CC3)c2c1` [Compound 173, 5-(((1s,4s)-4-(1H-imidazol-1-yl)cyclohexyl)oxy)-7-morpholino-N-(propylsulfonyl)-1,6-naphthyridine-3-carboxamide]: the IC50 fell in the range of 10 to 30 µM in test [1] and 0.001 to 0.01 µM in test [2]. The EC50 in test [3] (setting [4]), in test [3] (setting [5]) and in test [3] (setting [6]) was 10 to 100 µM each time.
As for `O=C(NS(=O)(=O)C1CC1)c1cnc2cc(N3CCOCC3)nc(O[C@H]3CC[C@@H](n4ccnc4)CC3)c2c1` [Compound 174, 5-(((1s,4s)-4-(1H-imidazol-1-yl)cyclohexyl)oxy)-N-(cyclopropylsulfonyl)-7-morpholino-1,6-naphthyridine-3-carboxamide], the IC50 in test [1] was 10 to 30 µM; in test [2], 0.001 to 0.01 µM. Besides, the EC50 in test [3] (setting [4]), in test [3] (setting [5]) and in test [3] (setting [6]) was 10 to 100 µM throughout.
For `CCOC(=O)c1cnc2cc(N3CCOCC3)nc(O[C@H]3CC[C@@H](Nc4ncc(OCC(=O)N(C)C)cn4)CC3)c2c1` [Compound 179, ethyl 5-(((1s,4s)-4-((5-(2-(dimethylamino)-2-oxoethoxy)pyrimidin-2-yl)amino)cyclohexyl)oxy)-7-morpholino-1,6-naphthyridine-3-carboxylate], the results for the IC50 in test [1] and in test [2] were 1 to 10 µM and 0.001 to 0.01 µM, respectively. The EC50 fell in the range of 1 to 10 µM in test [3] (setting [4]), 10 to 100 µM in test [3] (setting [5]) and 10 to 100 µM in test [3] (setting [6]).
On to `CN(C)C(=O)COc1cnc(N[C@H]2CC[C@@H](Oc3nc(N4CCOCC4)cc4ncc(C(=O)O)cc34)CC2)nc1` [Compound 180, 5-(((1s,4s)-4-((5-(2-(dimethylamino)-2-oxoethoxy)pyrimidin-2-yl)amino)cyclohexyl)oxy)-7-morpholino-1,6-naphthyridine-3-carboxylic acid], for which the IC50 is 10 to 30 µM in test [1] and below 0.0005 µM in test [2]. Moreover, the EC50 in test [3] (setting [5]) and in test [3] (setting [6]) was 10 to 100 µM in each case.
`O=C(O)COc1cnc(N[C@H]2CC[C@@H](Oc3nc(N4CCOCC4)cc4ncc(C(=O)O)cc34)CC2)nc1` [Compound 181, 5-(((1s,4s)-4-((5-(carboxymethoxy)pyrimidin-2-yl)amino)cyclohexyl)oxy)-7-morpholino-1,6-naphthyridine-3-carboxylic acid]: the values for the IC50 in test [1] and in test [2] were 10 to 30 µM and below 0.0005 µM, respectively. In addition, the EC50 in test [3] (setting [5]) and in test [3] (setting [6]) was 10 to 100 µM in each case.
In the case of `O=S(=O)(Nc1cnc2cc(N3CCOCC3)nc(O[C@H]3CC[C@@H](Nc4ncccn4)CC3)c2c1)C1CCC1` [Compound 191, N-(7-morpholino-5-(((1s,4s)-4-(pyrimidin-2-ylamino)cyclohexyl)oxy)-1,6-naphthyridin-3-yl)cyclobutanesulfonamide], the IC50 was 0.1 to 1 µM in test [1] and 0.001 to 0.01 µM in test [2]. Further, the EC50 in test [3] (setting [5]) and in test [3] (setting [6]) was 10 to 100 µM throughout.
With `CN(C)S(=O)(=O)Nc1cnc2cc(N3CCOCC3)nc(O[C@H]3CC[C@@H](Nc4ncccn4)CC3)c2c1` [Compound 194, N-[(1s,4s)-4-({3-[(dimethylsulfamoyl)amino]-7-(morpholin-4-yl)-1,6-naphthyridin-5-yl}oxy)cyclohexyl]pyrimidin-2-amine], the IC50 in test [1] was 0.1 to 1 µM; in test [2], below 0.0005 µM. The EC50 in test [3] (setting [5]) and in test [3] (setting [6]) was 1 to 10 µM in each case.
For the compound `O=S1(=O)CCCN1c1cnc2cc(N3CCOCC3)nc(O[C@H]3CC[C@@H](Nc4ncccn4)CC3)c2c1` [Compound 195, 2-(7-morpholino-5-(((1s,4s)-4-(pyrimidin-2-ylamino)cyclohexyl)oxy)-1,6-naphthyridin-3-yl)isothiazolidine 1,1-dioxide], the IC50 in test [1] is 1 to 10 µM; in test [2] it was 0.01 to 0.15 µM. Further, the EC50 in test [3] (setting [5]) and in test [3] (setting [6]) was 10 to 100 µM each time.
